Patent US10363257B2 (ZENITH EPIGENETICS LTD., priority 2013, dated 2019)
Blank lines part the entries; values can stand above or below the compound they belong to.

Key:
[1] = system: human AML MV-4-11 cells; assay: Inhibition of cell proliferation in MV4-11 cells (CellTiter Aqueous One); type: cell-based; settings: for IC50: MV4-11, 72 h; for Cell Proliferation activity: 72 h
Description: MV4-11 cells: 96-well plates were seeded with 5×10^4 cells per well of exponentially growing human AML MV-4-11 (CRL-9591) cells and immediately treated with two-fold dilutions of test compounds, ranging from 30 μM to 0.2 μM. Triplicate wells were used for each concentration, as well as a media only and three DMSO control wells. The cells and compounds were incubated at 37° C., 5% CO2 for 72 h before adding 20 μL of the CellTiter Aqueous One Solution (Promega) to each well and incubating at 37° C., 5% CO2 for an additional 3-4 h. The absorbance was taken at 490 nm in a spectrophotometer and the percentage of proliferation relative to DMSO-treated cells was calculated after correction from the blank well. IC50 were calculated using the GraphPad Prism software.

[2] = system: c-myc; assay: Inhibition of c-myc expression (mRNA, real-time PCR) in MV4-11 cells; type: cell-based; settings: Human AML MV4-11 cells, 3 h, cMYC mRNA
Description: MV4-11 cells (CRL-9591) were plated at a density of 2.5×10^4 cells per well in 96 well U-bottom plates and treated with increasing concentrations of test compound or DMSO (0.1%) in IMDM media containing 10% FBS and penicillin/streptomycin, and incubated for 3 h at 37° C. Triplicate wells were used for each concentration. Cells were pelleted by centrifugation and harvested using the mRNA Catcher PLUS kit according to manufacturer's instructions. The eluted mRNA isolated was then used in a one-step quantitative real-time PCR reaction, using components of the RNA UltraSense™ One-Step Kit (Life Technologies) together with Applied Biosystems TaqMan® primer-probes for cMYC and Cyclophilin. Real-time PCR plates were run on a VIaTM7 real time PCR machine (Applied Biosystems), data was analyzed, normalizing the Ct values for cMYC to an internal control, prior to determining the fold expression of each sample, relative to the control.

[3] = molecular target: T1, Brd4 bromodomain 1 (BRD4(1)) (Homo sapiens, UniProt O60885); assay: Inhibition of tetra-acetylated histone H4 binding to Brd4 bromodomain 1 (TR-FRET); settings: tetra-acetylated histone H4 peptide, first bromodomain of Brd4
T1 construct: made in house; host or cells: E. coli BL21(DE3)
Description: Proteins were cloned and overexpressed with a N-terminal 6× His tag, then purified by nickel affinity followed by size exclusion chromatography. Briefly, E.coli BL21(DE3) cells were transformed with a recombinant expression vector encoding N-terminally Nickel affinity tagged bromodomains from Brd2, Brd3, Brd4. Cell cultures were incubated at 37° C. with shaking to the appropriate density and induced overnight with IPTG. The supernatant of lysed cells was loaded onto Ni-IDA column for purification. Eluted protein was pooled, concentrated and further purified by size exclusion chromatography. Fractions representing monomeric protein were pooled, concentrated, aliquoted, and frozen at −80° C. for use in subsequent experiments.
Binding of tetra-acetylated histone H4 and BET bromodomains was confirmed by a Time Resolved Fluorescence Resonance Energy Transfer (TR-FRET) method. N-terminally His-tagged bromodomains (200 nM) and biotinylated tetra-acetylated histone H4 peptide (25-50 nM, Millipore) were incubated in the presence of Europium Cryptate-labeled streptavidin (Cisbio Cat. #610SAKLB) and XL665-labeled monoclonal anti-His antibody (Cisbio Cat. #61HISXLB) in a white 96 well microtiter plate (Greiner). For inhibition assays, serially diluted test compound was added to these reactions in a 0.2% final concentration of DMSO. Final buffer concentrations were 30 mM HEPES pH 7.4, 30 mM NaCl, 0.3 mM CHAPS, 20 mM phosphate pH 7.0, 320 mM KF, 0.08% BSA). After a 2-h incubation at room temperature, the fluorescence by FRET was measured at 665 and 620 nm by a SynergyH4 plate reader (Biotek). The binding inhibitory activity was shown by a decrease in 665 nm fluorescence relative to 620 nm. IC50 values were determined from a dose response curve.

Structure (SMILES): Cc1noc(C)c1-c1cnc2nc(NCCN(C)C)n(Cc3ccccc3)c2c1 [compound 212, N1-(1-benzyl-6-(3,5-dimethylisoxazol-4-yl)-1H-imidazo[4,5-b]pyridin-2-yl)-N2,N2-dimethylethane-1,2-diamine]
IC50 [1]: 300 to 3000 nM
IC50 [2]: 300 to 3000 nM
IC50 [3]: ≤ 300 nM

Structure (SMILES): Cc1noc(C)c1-c1cnc2nc(C)n(CC3CCCC3)c2c1 [compound 192, 4-(1-(cyclopentylmethyl)-2-methyl-1H-imidazo[4,5-b]pyridin-6-yl)-3,5-dimethylisoxazole]
IC50 [1]: 300 to 3000 nM
IC50 [2]: 300 to 3000 nM
IC50 [3]: ≤ 300 nM

Structure (SMILES): Cc1noc(C)c1-c1cnc2nc(NC3CCOCC3)n(CC3CCCC3)c2c1 [compound 222, 1-(cyclopentylmethyl)-6-(3,5-dimethylisoxazol-4-yl)-N-(tetrahydro-2H-pyran-4-yl)-1H-imidazo[4,5-b]pyridin-2-amine]
IC50 [1]: ≤ 300 nM
IC50 [2]: ≤ 300 nM
IC50 [3]: ≤ 300 nM

Structure (SMILES): Cn1nccc1-c1cc([N+](=O)[O-])c2c(c1)n(Cc1ccccc1)c(=O)n2C [compound 198, 1-benzyl-3-methyl-6-(1-methyl-1H-pyrazol-5-yl)-4-nitro-1H-benzo[d]imidazol-2(3H)-one]
IC50 [1]: 3000 to 30000 nM
IC50 [2]: 3000 to 30000 nM
IC50 [3]: ≤ 300 nM

Structure (SMILES): CCNc1nc2c(N)cc(-c3c(C)noc3C)cc2n1C(C)c1ccccc1 (stereo not drawn) [compound 134, 6-(3,5-dimethylisoxazol-4-yl)-N2-ethyl-1-(1-phenylethyl)-1H-benzo[d]imidazole-2,4-diamine]
IC50 [1]: ≤ 300 nM
IC50 [2]: ≤ 300 nM
IC50 [3]: ≤ 300 nM

Structure (SMILES): Cc1noc(C)c1-c1cnc2nc(C)n(CC3CCC3)c2c1 [compound 193, 4-(1-(cyclobutylmethyl)-2-methyl-1H-imidazo[4,5-b]pyridin-6-yl)-3,5-dimethylisoxazole]
IC50 [1]: 300 to 3000 nM
IC50 [2]: 300 to 3000 nM
IC50 [3]: ≤ 300 nM

Structure (SMILES): CCNc1nc2c([N+](=O)[O-])cc(-c3c(C)noc3C)cc2n1CC1CC1 [compound 159, 1-(cyclopropylmethyl)-6-(3,5-dimethylisoxazol-4-yl)-N-ethyl-4-nitro-1H-benzo[d]imidazol-2-amine]
IC50 [1]: 300 to 3000 nM
IC50 [2]: ≤ 300 nM
IC50 [3]: ≤ 300 nM

Structure (SMILES): Cc1noc(C)c1-c1cnc2nc(N3CCOCC3)n(CC3CCC3)c2c1 [compound 210, 4-(1-(cyclobutylmethyl)-6-(3,5-dimethylisoxazol-4-yl)-1H-imidazo[4,5-b]pyridin-2-yl)morpholine]
IC50 [1]: 300 to 3000 nM
IC50 [2]: 300 to 3000 nM
IC50 [3]: ≤ 300 nM

Structure (SMILES): Cc1noc(C)c1-c1cnc2nc(NCc3cccnc3)n(Cc3ccccc3)c2c1 [compound 185, 1-benzyl-6-(3,5-dimethylisoxazol-4-yl)-N-(pyridin-3-ylmethyl)-1H-imidazo[4,5-b]pyridin-2-amine]
IC50 [1]: ≤ 300 nM
IC50 [2]: ≤ 300 nM
IC50 [3]: ≤ 300 nM

Structure (SMILES): Cc1noc(C)c1-c1cc(N)c2[nH]c(=O)n(CC3CC3)c2c1 [compound 161, 4-amino-1-(cyclopropylmethyl)-6-(3,5-dimethylisoxazol-4-yl)-1H-benzo[d]imidazol-2(3H)-one]
IC50 [1]: 300 to 3000 nM
IC50 [3]: ≤ 300 nM

Structure (SMILES): Cc1nc2ncc(-c3cnnn3C)cc2n1Cc1ccccc1 [compound 206, 1-benzyl-2-methyl-6-(1-methyl-1H-1,2,3-triazol-5-yl)-1H-imidazo[4,5-b]pyridine]
IC50 [1]: 3000 to 30000 nM
IC50 [3]: ≤ 300 nM

Structure (SMILES): Cc1noc(C)c1-c1ccc2[nH]cc(Nc3cccc(C#N)c3)c2n1 [Example Compound 57, 3-((5-(3,5-dimethylisoxazol-4-yl)-1H-pyrrolo[3,2-b]pyridin-3-yl)amino)benzonitrile]
IC50 [1]: 3000 to 30000 nM
IC50 [3]: 3000 to 30000 nM

Structure (SMILES): Cc1noc(C)c1-c1cnc2ncn(Cc3ccccn3)c2c1 [Example Compound 47, 3,5-dimethyl-4-(1-(pyridin-2-ylmethyl)-1H-imidazo[4,5-b]pyridin-6-yl)isoxazole]
Cell Proliferation activity [1]: Not active
IC50 [3]: 3000 to 30000 nM

Structure (SMILES): Cc1noc(C)c1-c1cc2c(ncn2Cc2ccc(F)cc2)[n+]([O-])c1 [compound 79, 6-(3,5-dimethylisoxazol-4-yl)-1-(4-fluorobenzyl)-1H-imidazo[4,5-b]pyridine 4-oxide]
Cell Proliferation activity [1]: Not active

The next lines start with results.

IC50 [1]: 300 to 3000 nM
IC50 [2]: 300 to 3000 nM
IC50 [3]: ≤ 300 nM
Structure (SMILES): Cc1noc(C)c1-c1cc(F)c2[nH]c(=O)n(Cc3ccccc3)c2c1 [compound 163, 1-benzyl-6-(3,5-dimethylisoxazol-4-yl)-4-fluoro-1H-benzo[d]imidazol-2(3H)-one]

IC50 [1]: 300 to 3000 nM
IC50 [2]: ≤ 300 nM
IC50 [3]: ≤ 300 nM
Structure (SMILES): Cc1noc(C)c1-c1cc(N)c2[nH]c(=O)n([C@@H](C)c3ccccc3)c2c1 [compound 178, (S)-4-amino-6-(3,5-dimethylisoxazol-4-yl)-1-(1-phenylethyl)-1H-benzo[d]imidazol-2(3H)-one]

IC50 [1]: 300 to 3000 nM
IC50 [2]: 300 to 3000 nM
IC50 [3]: ≤ 300 nM
Structure (SMILES): COc1ccc(Cn2c(=O)[nH]c3c(N)cc(-c4c(C)noc4C)cc32)cc1 [compound 104, 4-amino-6-(3,5-dimethylisoxazol-4-yl)-1-(4-methoxybenzyl)-1H-benzo[d]imidazol-2(3H)-one]

IC50 [1]: 300 to 3000 nM
IC50 [2]: 300 to 3000 nM
IC50 [3]: ≤ 300 nM
Structure (SMILES): CC(=O)Nc1cc(-c2c(C)noc2C)cc2c1nc(N1CCC1)n2Cc1ccccc1 [compound 130, N-(2-(azetidin-1-yl)-1-benzyl-6-(3,5-dimethylisoxazol-4-yl)-1H-benzo[d]imidazol-4-yl)acetamide]

IC50 [1]: 300 to 3000 nM
IC50 [2]: 300 to 3000 nM
IC50 [3]: ≤ 300 nM
Structure (SMILES): Cc1noc(C)c1-c1cc(N2CCOCC2)c2nc(C)n(Cc3ccccc3)c2c1 [compound 182, 4-(1-benzyl-6-(3,5-dimethylisoxazol-4-yl)-2-methyl-1H-benzo[d]imidazol-4-yl)morpholine]

IC50 [3]: 300 to 3000 nM
Structure (SMILES): CCOc1nc2ncc(-c3c(C)noc3C)cc2n1Cc1ccccc1 [Example Compound 59, 4-(1-benzyl-2-ethoxy-1H-imidazo[4,5-b]pyridin-6-yl)-3,5-dimethylisoxazole]
Cell Proliferation activity [1]: Not active

IC50 [2]: 3000 to 30000 nM
IC50 [3]: ≤ 300 nM
Structure (SMILES): Cc1noc(C)c1-c1cc(Br)c2nc(C)n(CCc3ccccc3)c2c1 [compound 186, 4-(4-bromo-2-methyl-1-phenethyl-1H-benzo[d]imidazol-6-yl)-3,5-dimethylisoxazole]
Cell Proliferation activity [1]: Not active

IC50 [3]: ≤ 300 nM
Structure (SMILES): COC(=O)c1cc(-c2c(C)noc2C)cc2c1[nH]c(=O)n2Cc1ccccc1 [Example Compound 20, methyl 1-benzyl-6-(3,5-dimethylisoxazol-4-yl)-2-oxo-2,3-dihydro-1H-benzo[d]imidazole-4-carboxylate]
Cell Proliferation activity [1]: Not active

IC50 [3]: 300 to 3000 nM
Structure (SMILES): CC(=O)Oc1nc2ncn(Cc3ccc(F)cc3)c2cc1-c1c(C)noc1C [compound 80, 6-(3,5-dimethylisoxazol-4-yl)-1-(4-fluorobenzyl)-1H-imidazo[4,5-b]pyridin-5-yl acetate]
Cell Proliferation activity [1]: Not active

IC50 [3]: 3000 to 30000 nM
Structure (SMILES): Cc1noc(C)c1-c1cc2c([nH]c1=O)c(C)nn2Cc1ccc(F)cc1 [Example Compound 25, 6-(3,5-dimethylisoxazol-4-yl)-1-(4-fluorobenzyl)-3-methyl-1H-pyrazolo[4,3-b]pyridin-5(4H)-one]
Cell Proliferation activity [1]: Not active

IC50 [3]: 300 to 3000 nM
Structure (SMILES): Cc1noc(C)c1-c1cc(Br)c2nc(C)n(C(=O)c3ccccc3)c2c1 [compound 200, (4-bromo-6-(3,5-dimethylisoxazol-4-yl)-2-methyl-1H-benzo[d]imidazol-1-yl)(phenyl)methanone]
Cell Proliferation activity [1]: Not active

IC50 [1]: 300 to 3000 nM
IC50 [3]: ≤ 300 nM
Structure (SMILES): CCNc1nc2ncc(-c3c(C)noc3C)cc2n1Cc1ccccc1 [compound 107, 1-benzyl-6-(3,5-dimethylisoxazol-4-yl)-N-ethyl-1H-imidazo[4,5-b]pyridin-2-amine]
